Measurements as given in patent EP0934940A1, “CYTOKINE PRODUCTION INHIBITORS, TRIAZEPINE COMPOUNDS, AND INTERMEDIATES THEREOF” (Japan Tobacco Inc., priority 1996, dated 1997).
Like-named read-outs stand apart in the source and are kept apart here.

Assays:
IL-6 [1] = experiment: Inhibitory activity on in vivo IL-6 production by LPS stimulation; conditions: male ICR mice, LPS stimulation i.v., test compound 10 mg/kg p.o. at the same time, blood two hours later, relative to 0.5% CMC-Na group; for inhibition in vivo at 10 mg/kg: Mus musculus, po, 2 h, read-out: Inhibtion (%) of plasma IL-6 production (10 mg/kg, p.o.)
Protocol: Inhibitory activity on in vivo IL-6 production by LPS stimulation
LFS (0.3 mg/kg) was intravenously administered to male ICR mice (6-week-old) fasted for 24 hours. At the same time, the test compound suspended in 0.5% CMC-Na ( carboxymethylcellulose sodium) was orally administered at the dose of 10 mg/kg.
Two hours later, blood was taken from eyegrounds. The blood was centrifuged, and the plasma fraction was diluted and quantitatively assayed for IL-6 in blood by ELISA (Endogen EM-IL6). The inhibitory percentage of the group administered with the test compound was expressed relative to the amount of IL-6 in blood of the cup administered with 0.5% CMC-Na.

TNF-α = experiment: Inhibitory activity on TNF-α production from LPS-stimulated human PBMC (ELISA); type: cell-based; conditions: Homo sapiens, PBMC, 24 h
Protocol: (§1) Inhibitory activity on cytokine production from human PBMC (peripheral blood mononuclear cell)
(§2) PBMC fractions were isolated from human blood using a mono-poly resolving medium. The cells (PBMC) were cultured in 5% FCS (fetal calf serum)/RPMI1640 medium. Thereafter, the test compound was added to the final concentration of 0.001-10 µM, and LPS (lipopolysaccharide) was added to the final concentration of 10 µg/ml. After incubatioin for 24 hours, the supernatant was separated and freeze stocked at -80°C.
(§3) On the day of experiment, the supernatant was thawed and the production amount of cytokine was measured by ELISA. IL-6 was assayed using [(h)IL-6] human, ELISA system (Amersham); TNF-α was assayed using [(h)TNF-α] human, ELISA system (Amersham); GM-CSF was assayed using human GM-CSF immunoassay (R&D systems); and IL-8 was assayed using human IL-8 immunoassay (R&D systems). The determination method followed the method of each kit. The results are expressed in IC50.

IL-6 [2] = experiment: Inhibitory activity on IL-6 production from LPS-stimulated human PBMC (ELISA); type: cell-based; conditions: 24 h
Protocol: as §1, §2, §3

[3] = read-out: TNF-α IC50 (µM), human PBMC, LPS 10 µg/ml, incubation 24 hours, supernatant ELISA
[4] = read-out: IL-6 IC50 (µM), human PBMC, LPS 10 µg/ml, incubation 24 hours, supernatant ELISA
[5] = human PBMC, LPS 10 µg/ml, incubation 24 hours, supernatant ELISA, read-out: TNF-α IC50
[6] = human PBMC, LPS 10 µg/ml, incubation 24 hours, supernatant ELISA, read-out: IL-6 IC50

| IC50 (TNF-α; [3]) [µM] | IC50 (IL-6 [2]; [4]) [µM] | Structure (SMILES) | also measured |
| --- | --- | --- | --- |
|  |  | Cc1sc2c(c1C)C(c1ccc(Cl)cc1)=NN(Cc1ccc(C#N)cc1)c1nnc(C)n1-2 [Synthetic Example 115, 4-(4-Chlorophenyl)-6-(4-cyanobenzyl)-2,3,9-trimethyl-6H-5,6,7,8,9a-pentaazathieno[2,3-e]azulene] | inhibition in vivo at 10 mg/kg (IL-6 [1]): 75% |
| 0.6 | 3.4 | Cc1nnc2n1-c1ccccc1C(c1ccc(Cl)cc1)=NC2CC(=O)Nc1ccccc1 (stereo not drawn) [compound 195] |  |
| 0.01 | 1.6 | CCOC(=O)C1(NC(=O)Nc2cc(OC)ccc2OC)N=C(c2ccc(Cl)cc2)c2ccccc2-n2c(C)nnc21 (stereo not drawn) [compound 199] |  |
| 0.01 | 0.08 | Cc1nnc2n1-c1ccccc1C(c1ccc(Cl)cc1)=NN2Cc1ccncc1 [compound 86] |  |
|  |  | Cc1nnc2n1-c1ccccc1C(c1ccc(Br)cc1)=NN2Cc1ccc(Br)cc1 [Synthetic Example 109, 4-(4-Bromobenzyl)-6-(4-bromophenyl)-1-methyl-4H-2,3,4,5,10b-pentaaabenz[e]azulene] | Inhibtion (%) of plasma IL-6 production (10 mg/kg, p.o.) (IL-6 [1]): 51% |
|  |  | COC(=O)c1ccc(C2=NN(Cc3ccc(C#N)cc3)c3nnc(C)n3-c3ccccc32)cc1 [Example 7, Methyl 4-[4-(4-cyanobenzyl)-1-methyl-4H-2,3,4,5,10b-pentaazabenz[e]azulen-6-yl]benzoate] | IC50 (TNF-α; [5]): 0.5 µM; IC50 (IL-6 [2]; [6]): 0.23 µM |
| < 0.01 | 0.02 | Cc1sc2c(c1C)C(c1ccccc1)=NN(Cc1ccncc1)c1nnc(C)n1-2 [compound 125] |  |
| < 0.01 | 0.08 | CCc1cc2c(s1)-n1c(C)nnc1N(Cc1ccncc1)N=C2c1ccccc1 [compound 127] |  |
| < 0.01 | < 0.01 | Cc1nnc2n1-c1ccccc1C(c1ccc(Cl)cc1)=NN2Cc1ccc(C#N)cc1 [compound 39] |  |
| 0.001 | 0.11 | Cc1ccc(C2=NN(Cc3ccncc3)c3nnc(C)n3-c3ccccc32)cc1 [compound 103] |  |
|  |  | Cc1nnc2n1-c1ccccc1C(c1ccc(NC(=O)OC(C)(C)C)cc1)=NN2Cc1ccc(C#N)cc1 [Example 13, tert-Butyl 4-[4-(4-cyanobenzyl)-1-methyl-4H-2,3,4,5,10b-pentaazabenz[e]azulen-6-yl]phenylcarbamate] | IC50 (TNF-α; [5]): < 0.01 µM; IC50 (IL-6 [2]; [6]): 0.02 µM |
| 0.3 | > 10 | Cc1nnc2n1-c1ccccc1C(c1ccc(Cl)cc1)=NC21NC(=O)N(c2ccccc2)C1=O (stereo not drawn) [compound 197] |  |
|  |  | Cc1nnc2n1-c1ccccc1C(c1ccccc1)=NN2Cc1ccncc1 [Synthetic Example 95, 1-Methyl-6-phenyl-4-(pyridin-4-ylmethyl)-4H-2,3,4,5,10b-pentaazabenz[e]azulene] | inhibition in vivo at 10 mg/kg (IL-6 [1]): 78% |
| 0.06 | 0.8 | Cc1sc2c(c1C)C(c1ccccc1Cl)=NN(Cc1ccncc1)c1nnc(C)n1-2 [compound 20] |  |
| 0.09 | 2.5 | COc1ccc(OC)c(N2C(=O)NC3(N=C(c4ccc(Cl)cc4)c4ccccc4-n4c(C)nnc43)C2=O)c1 (stereo not drawn) [compound 196] |  |
|  |  | Cc1nnc2n1-c1ccccc1C(c1ccccc1)=NN2Cc1ccc(C#N)cc1 [Synthetic Example 111, 4-(4-Cyanobenzyl)-1-methyl-6-phenyl-4H-2,3,4,5,10b-pentaazabenz[e]azulene] | inhibition in vivo at 10 mg/kg (IL-6 [1]): 62% |
|  |  | Cc1ccc(C2=NN(Cc3ccncc3)c3nnc(C)n3-c3ccccc32)cc1 [Synthetic Example 103, 1-Methyl-6-(4-methylphenyl)-4-(pyridin-4-ylmethyl)-4H-2,3,4,5,10b-pentaazabenz[e]azulene] | inhibition in vivo at 10 mg/kg (IL-6 [1]): 75% |
| 0.007 | 0.22 | Cc1ccc2c(c1)-n1c(C)nnc1N(Cc1ccncc1)N=C2c1ccccc1 [compound 97] |  |
|  |  | Cc1ccc2c(c1)-n1c(C)nnc1N(Cc1ccncc1)N=C2c1ccccc1 [Synthetic Example 97, 1,9-Dimethyl-6-phenyl-4-(pyridin-4-ylmethyl)-4H-2,3,4,5,10b-pentaazabenz[e]azulene] | inhibition in vivo at 10 mg/kg (IL-6 [1]): 98% |
| < 0.01 | < 0.01 | Cc1ccc2c(c1)-n1c(C)nnc1N(Cc1ccc(C#N)cc1)N=C2c1ccc(Cl)cc1 [compound 108] |  |

| IC50 (TNF-α; [3]) [µM] | IC50 (IL-6 [2]; [4]) [µM] | Structure (SMILES) | also measured |
| --- | --- | --- | --- |
|  |  | CCc1cc2c(s1)-n1c(C)nnc1N(Cc1cc[n+]([O-])cc1)N=C2c1ccc(Cl)cc1 [Example 4, 4-[4-(4-Chlorophenyl)-2-ethyl-9-methyl-6H-1-thia-5,6,7,8,9a-pentaazacyclopent[e]azulen-6-ylmethyl]-pyridine-1-oxide] | IC50 (IL-6 [2]; [6]): 2 µM |
| < 0.01 | < 0.01 | Cc1cc2c(s1)-n1c(C)nnc1N(Cc1ccc(C#N)cc1)N=C2c1ccccc1 [compound 122] |  |
|  |  | Cc1cc2c(s1)-n1c(C)nnc1N(Cc1ccc(C#N)cc1)N=C2c1ccccc1 [Synthetic Example 122, 6-(4-Cyanobenzyl)-2,9-dimethyl-4-phenyl-6H-5,6,7,8,9a-pentaazathieno[2,3-e]azulene] | inhibition in vivo at 10 mg/kg (IL-6 [1]): 71% |
| 0.02 | 0.01 | Cc1ccc(CN2N=C(c3ccc(Cl)cc3)c3ccccc3-n3c(C)nnc32)cc1 [compound 54] |  |
| < 0.01 | 0.04 | Cc1cc2c(s1)-n1c(C)nnc1N(Cc1ccncc1)N=C2c1ccccc1 [compound 121] |  |
|  |  | Cc1ccc2c(c1)-n1c(C)nnc1N(Cc1ccc(C#N)cc1)N=C2c1ccc(Cl)cc1 [Synthetic Example 108, 6-(4-Chlorophenyl)-4-(4-cyanbenzyl)-1,9-dimethyl-4H-2,3,4,5,10b-pentaazabenz[e]azulene] | Inhibtion (%) of plasma IL-6 production (10 mg/kg, p.o.) (IL-6 [1]): 70% |
| 0.03 | 0.34 | Cc1nnc2n1-c1ccccc1C(c1ccccc1)=NN2Cc1ccncc1 [compound 95] |  |
| 0.01 | 3.9 | Cc1nnc2n1-c1ccccc1C(c1ccc(Cl)cc1)=NC2NC(=O)c1cc2ccccc2[nH]1 (stereo not drawn) [compound 205] |  |
|  |  | Cc1nnc2n1-c1ccccc1C(c1ccc(NC(=O)OC(C)(C)C)cc1)=NN2Cc1ccc([N+](=O)[O-])cc1 [Example 14, tert-Butyl 4-[1 methyl-4-(4-nitrobenzyl)-4H-2,3,4,5,10b-pentaazabenz[e]azulen-6-yl]phenylcarbamate] | IC50 (TNF-α; [5]): < 0.01 µM; IC50 (IL-6 [2]; [6]): 0.02 µM |
| 0.014 | 0.06 | COc1ccc(C2=NN(Cc3ccncc3)c3nnc(C)n3-c3sc(C)c(C)c32)cc1 [compound 129] |  |
| 0.4 | > 10 | COc1ccc(OC)c(NC(=O)NC2N=C(c3ccc(Cl)cc3)c3ccccc3-n3c(C)nnc32)c1 (stereo not drawn) [compound 204] |  |
| 0.01 | 0.06 | Cc1sc2c(c1C)C(c1ccc(Cl)cc1)=NN(Cc1ccc(C#N)cc1)c1nnc(C)n1-2 [compound 115] |  |
| < 0.01 | 0.008 | COc1ccc(CN2N=C(c3ccc(OC)cc3)c3c(sc(C)c3C)-n3c(C)nnc32)cc1 [compound 18] |  |
| < 0.01 | < 0.01 | CCc1cc2c(s1)-n1c(C)nnc1N(Cc1ccc(C#N)cc1)N=C2c1ccc(Cl)cc1 [compound 119] |  |
| 0.07 | 0.4 | Cc1nnc2n1-c1ccccc1C(c1ccccc1)=NN2Cc1ccc(C#N)cc1 [compound 111] |  |
|  |  | Cc1sc2c(c1C)C(c1ccc(Cl)cc1)=NN(Cc1cc[n+]([O-])cc1)c1nnc(C)n1-2 [Example 3, 4-[4-(4-Chlorophenyl)-2,3,9-trimethyl-6H-1-thia-5,6,7,8,9a-pentaazacyclopent[e]azulen-6-ylmethyl]-pyridine-1-oxide] | IC50 (TNF-α; [5]): 0.05 µM; IC50 (IL-6 [2]; [6]): 0.2 µM |
| 0.2 | 5.7 | Cc1nnc2n1-c1ccccc1C(c1ccc(Cl)cc1)=NC2NC(=O)NC1CCCCC1 (stereo not drawn) [compound 203] |  |
|  |  | Cc1cc2c(s1)-n1c(C)nnc1N(Cc1ccc(-c3nnn(C)n3)cc1)N=C2c1ccccc1 [Example 17, 2,9-dimethyl-4-phenyl-6-[4-(2-methyl-2H-tetrazol-5-yl)benzyl]-6H-5,6,7,8,9a-pentaazathieno[2,3-e]azulene] | IC50 (TNF-α; [5]): 0.12 µM |
| < 0.01 | 0.01 | Cc1sc2c(c1C)C(c1ccc(Cl)cc1)=NN(Cc1ccncc1)c1nnc(C)n1-2 [compound 114] |  |

| Structure (SMILES) | IC50 (TNF-α; [3]) [µM] | IC50 (IL-6 [2]; [4]) [µM] | also measured |
| --- | --- | --- | --- |
| Cc1nnc2n1-c1ccc([N+](=O)[O-])cc1C(c1ccccc1)=NN2Cc1ccncc1 [compound 102] | 0.05 | 1.15 |  |
| Cc1nnc2n1-c1ccccc1C(c1ccc(Br)cc1)=NN2Cc1ccc(Br)cc1 [compound 109] | 0.07 | < 0.01 |  |
